# Measurements from patent US11110079B2, “Mebendazole polymorph for treatment and prevention of tumors” (THE JOHNS HOPKINS UNIVERSITY, priority 2015, dated 2021).
# What was measured:
# [1] = test system: glioma and medulloblastoma cell lines; details: tissue culture; cited from earlier work
# [2] = test system: D425 medulloblastoma; assay: Orthotopic D425 medulloblastoma xenograft model (survival); type: in vivo, mouse; details: orthotopic D425 medulloblastoma xenograft; MBZ-C 50 mg/kg five days a week, elacridar 50 mg/kg 7 days
# Procedure: The intracranial implantation of GL261-luc in the frontal lobe and D425 cells in the cerebellum of the mouse brain followed the procedure described before (3,4). Five days after tumor implantation, mice were gavaged with MBZ or the other benzimidazoles at 50 mg/kg five days a week. MBZ and other benzimidazoles were prepared by either mixing the power with PBS and sesame oil (1:1, v:v) (Sigma) or by grinding the tablets to powder and resuspending in the aforementioned PBS/sesame oil mixture. Elacridar was prepared as a 10 mg/ml suspension in 0.5% hydroxypropylmethylcellulose and 0.5% Tween 80 in PBS similarly as described before (15).
# [3] = test system: GL261-luc glioma; details: GL261, single agent 50 mg/kg; control 29.5 days
# Procedure: All animal studies were approved by the Animal Care and Use Committee (ACUC) of the Johns Hopkins University. The intracranial implantation of GL261-luc in the frontal lobe and D425 cells in the cerebellum of the mouse brain followed the procedure described before (3,4). […] MBZ and other benzimidazoles were prepared by either mixing the power with PBS and sesame oil (1:1, v:v) (Sigma) or by grinding the tablets to powder and resuspending in the aforementioned PBS/sesame oil mixture. Elacridar was prepared as a 10 mg/ml suspension in 0.5% hydroxypropylmethylcellulose and 0.5% Tween 80 in PBS similarly as described before (15).
# Animal survival data were analyzed by GraphPad Prism 5.0. The p-values were determined by a Mantel-Cox test. A p-value under 0.05 was accepted as statistically significant.
# [4] = test system: SW480; assay: SW480 colon cancer flank xenograft; type: in vivo, Nude mice
# Procedure: (§1) FIGS. 9A-9E. […] Two human colorectal carcinoma cell lines, HT29 and SW480, were implanted subcutaneously into the flanks of Nude mice and treated for four weeks with 50 mg/kg MBZ by oral gavage. Tumor volumes were measured twice weekly, averaged, and plotted over the course of the experiment. HT29 xenograft (FIG. 9A) and SW480 xenograft (B) growth inhibitory curves. Resected flank tumors from each group were weighed at the end of the experiment and compared to untreated control (FIG. 9C, FIG. 9D) Paraffin-embedded flank tumor tissues were stained for Ki67 proliferation marker. […] Five randomly selected fields from each slide were quantified as the percent Ki67-positive cell×100/total number of cells and represent the mean+SEM of five animals. *, P<0.05.
# [5] = in vivo; details: mouse
# Procedure: Female C57BL6 mice, 5-6 weeks of age, were purchased from NCl. Animal experimentation was conducted under an approved IACUC protocol and complied with local and national guidelines. All MBZ polymorphs and tablets were administered by oral gavage at a dose of 50 mg/kg. Elacridar was administered by oral gavage at 50 mg/kg 2 hours prior to the administration of MBZ-C. Mice (3 animals/time point) were first anesthetized via intraperitoneal injection of 60 μl of a stock solution containing ketamine hydrochloride (75 mg/kg) (100 mg/ml; Ketamine HCl; Abbot Laboratories, Chicago, Ill., USA) and xylazine (7.5 mg/kg) (100 mg/ml; Xyla-ject®, Phoenix Pharmaceutical, St. Joseph, Mo., USA) in a sterile 0.9% NaCl solution. Then the blood samples were taken by puncturing and aspiring from the left heart ventricle. Blood samples were mixed with 5 mM EDTA and centrifuged at 10000 g for 5 min to obtain the plasma for further analysis.
# For brain distribution studies, mice were perfused under anesthesia with 20 ml ice-cold saline supplemented with 20 μl of 0.02% heparin by injecting slowly into the left heart ventricle using a 20 gauge needle. The right atrium was cut open before to allow the blood outflow. The yellow color of kidney indicated a good perfusion quality that was essential to deplete blood from the brain tissue. In GL261 tumor-bearing mice, GL261 tumor was distinguished from the normal brain by easily recognizable differences in color and shade. GL261 tumor was separated with a scalpel and the normal brain tissue was cut from the contralateral hemisphere. All brain samples were weighed and stored at −80° C. before processing.
# Blood, brain and brain tumor tissues were harvested as a function of time after MBZ administration. To compare the pharmacokinetics of MBZ polymorphs, three cohorts of mice each were administered a single dose of 50 mg/kg by oral gavage. For the initial comparison studies, plasma samples were obtained at 1, 2.5, 4, 6, 8, 15, and 24 hours after MBZ administration while brain tissue was only collected at 6 hours. For the comparison studies of polymorph C with or without ELD, plasma and brain tissue samples were obtained at 2.5, 4, and 8 hours after MBZ administration. Brain tumor tissue samples were also obtained for polymorph C alone.
# MBZ and the two metabolites, 2-amino-5-benzoyl-benzimidazole (MBZ-NH2, CAS 52329-60-9) and rac dihydro mebendazole (MBZ-OH, CAS 60254-95-7), were quantified in plasma, brain and brain tumor tissue. Tissue homogenates were prepared at a concentration of 200 mg/ml in plasma prior to extraction. Mebendazole and metabolites were extracted from 50 μl of plasma or tissue homogenates with 0.1 ml of methanol containing 0.5 μg/ml of the internal standard A620223.69. After centrifugation, the supernatant (60 μl) was mixed with water (40 μl) and then transferred into autosampler vials. […] The analytes were monitored using an AB Sciex triple quadrapole™ 5500 mass-spectrometric detector (Applied Biosystems, Foster City, Calif., USA) using electrospray ionization operating in positive mode. The spectrometer was programmed to allow the [MH+] ions of MBZ, MBZ-NH2, MBZ-OH, and A620223.69 at m/z 296.0, 238.0, 298.0, and 287.2, respectively to pass through the first quadrupole (Q1) and into the collision cell (Q2). The daughter ions for MBZ (m/z 263.9), MBZ-NH2 (m/z 105.1), MBZ-OH (m/z 266.0), and A620223.69 (m/z 124.1) were monitored through the third quadrupole (Q3). Calibration curves for MBZ and metabolites were computed using the area ratio peak of the analysis to the internal standard by using a quadratic equation with a 1/x weighting function over the range of 5 to 500 ng/ml (MBZ) and 1 to 500 ng/ml (metabolites) with dilutions of up to 1:100 (v:v). If one or more concentrations were below limits of quantification, a value of ½ the limit of quantification was assigned for pharmacokinetic calculations.
# [6] = test system: HT29; assay: HT29 colon cancer flank xenograft; type: in vivo, Nude mice
# Procedure: as §1
# [7] = test system: polyps in the intestine of APC min/+ mice; assay: APC min/+ mouse chemoprevention study (intestinal polyps); type: in vivo
# Procedure: The average number of polyps for each treatment group were graphed for the proximal, middle and distal small intestines and colon (FIG. 11A). Individual polyps were measured and categorized based on size. The average number of polyps for Sulindac versus the combiniation of MBZ+Sulindac were analyzed separately for each section of the intestine (FIG. 11B).
# [8] = human; cited from earlier work
# [9] = mice; cited from earlier work
SMILES,IC50 [1],median survival [2],median survival [3],Ki67 proliferation marker staining ([4]; SW480 flank tumor tissue),c-myc and Bcl-2 protein expression ([4]; SW480 flank xenograft lysates),"tumor growth and proliferation ([4]; SW480 xenograft, 50 mg/kg MBZ oral gavage four weeks)",effect of ELD on average B/P ratios of MBZ [5],"distribution in GL261 brain tumor vs contralateral normal brain tissue ([5]; po, 50 mg/kg)",Ki67 proliferation marker staining ([6]; HT29 flank tumor tissue),c-myc and Bcl-2 protein expression ([6]; HT29 flank xenograft lysates),"tumor growth and proliferation ([6]; HT29 xenograft, 50 mg/kg MBZ oral gavage four weeks)","formation, occurrence and size of polyps [7]",cerebrospinal fluid (CSF)/plasma ratio [8],B/P ratio [9]
"COC(=O)Nc1nc2ccc(C(=O)c3ccccc3)cc2[nH]1 [MBZ, Mebendazole]",110 to 1000 nM,53 days,53 days,significantly less positive,reduction of these proteins in most cases,inhibits growth and proliferation,elevated,did not differ significantly,significantly less positive,reduction of these proteins in most cases,inhibits growth and proliferation,reduces the formation of polyps,–,–
Cn1nnc2c(C(N)=O)ncn2c1=O [temozolomide],–,–,–,–,–,–,–,–,–,–,–,–,0.2,0.408
